Earlier results in paper PMC12241124 (Frontiers in Microbiology, 2025).

Settings: ref Mygind et al., 2005

plectasin
terminal serum elimination half-life: 51 min
